# Tests used:
# [1] = NMR competition (WaterLOGSY / spin-lock filtered 1H): displacement of FS2/FS3 peptides from heparin agarose resin; format: binding; settings: WaterLOGSY; 1:1 peptoid/FS2, both 1 mM; pH 7.5
# Description: NMR competition experiments involved the acquisition of 1D-^1H WaterLOGSY or spin-lock filtered NMR spectra. Thus, FS2 peptide is displaced from heparin agarose resin by CSIC02 (1:1 peptoid/FS2, both 1 mM), but not by CSIC03 (Figure S15). […] We reasoned that if CSIC02 was able to interact with GAG and displace FS2/FS3 basic peptides, it may also interfere with SCTWT–heparin interaction. To investigate if CSIC02 could displace SCTWT from heparin dp14 and to define the SCTWT residues affected, 2D NMR ^1H-^15N HSQC CSP experiments were used. Figure 8a illustrates the chemical shift effects of CSIC02 addition to a sample of SCTWT containing dp14 heparin. […] In Figure 8b, we display the chemical shift perturbation of SCTWT NMR spectra in the presence of dp14 and CSIC02. Thus, as the two CSP plots in Figure 4b and Figure 8b were calculated using as reference SCTWT alone in solution, we can compare them directly. […] Moreover, splitting of signals for some residues (R733, R734, and Q735 in the first GAG-binding region) was observed (Figure 8c). This observation is compatible with the presence of different species in slow chemical exchange in solution, with partial detachment of SCTWT from heparin. The amount of CSIC02 used in these experiments can be rationalized considering that the SCTWT has ca. 12 positive charges at neutral pH (Figure S18), while CSIC02 is tricationic. Since the binding is mediated by ionic polar interactions, a large excess of CSIC02 is needed to counterbalance the SCTWT-dp14 binding.
# Next, 1D ^1H T1ρ relaxation filtered and WaterLOGSY NMR experiments were acquired at 25 °C on a 500-MHz spectrometer (Varian Inova; Agilent Technologies, Santa Clara, CA, USA) equipped with an AutoX inverse double-resonance probe with a z-shielded pulsed-field gradient coil. The samples were prepared in a 5-mm Wilmad NMR 528-PP tubes with 10 mM Tris-d11 (for peptide/GAG samples) and 150 mM NaCl dissolved in 90% H2O/10% D2O at pH 7.5. All spectra were obtained with a sweep width of 8 kHz and 16,384 acquired data points. The experiments were recorded using the standard pulse sequence in the (WLOGSY_ES) Chempack library, with excitation sculpting to suppress water resonances. For Water-LOGSY experiments, the first water-selective 180° pulse was 25 ms long. The spectra were acquired with 1200 transients and a spin-lock pulse of 50 ms at 3.7 kHz. To phase Water-LOGSY spectra correctly, it is necessary to use an internal reference compound. In our case, the reference is the residual ethanol absorbed/bonded in heparin-agarose resin (this interaction was previously confirmed with T1ρ filtered experiments), which appears as a positively phased signal. […]
# [2] = Concentration-dependent 1H NMR and DOSY NMR (aggregation); format: physicochemical; settings: DOSY NMR and spectra at increasing concentrations
# Excerpt: (§1) As a simple way to characterize the GAG binding behavior, we applied the method previously described by Jiao et al., using the cationic dye known as methylene blue (MB) in a colorimetric competition assay. To compare with our previous results for SICHI, we performed similar experimental design and data analysis, using the charge excess at 50% of MB displacement (CE50) as the parameter to compare the respective binding abilities. The four peptoids rendered very similar CE50 values (CE50 = 1.5–1.8, Figure 6a), reflecting the equivalent charge states. However, CSIC02 reached saturation (complete MB displacement) with a lower number of equivalents, which can be due to its slightly larger molecular size that may cause a more efficient interference with MB binding. Next, we assessed the integrity and solubility of CSIC02 by NMR. To characterize its tendency to aggregate in aqueous solution, NMR spectra at increasing concentrations were acquired which show the same sharp signals under all conditions (Figure S13). […] Direct binding of CSIC02 to GAGs was qualitatively assessed by specific NMR experiments.
# Figure S13. Concentration-dependent NMR spectra of CSIC02 and 1H DOSY NMR spectrum of 0.2 mM CSIC02 in presence of 0.5 mM caffeine. […] The spectra were processed with MNova software and the measured diffusion coefficients from DOSY […]
# [3] = 1D 1H NMR titration with chondroitin sulfate; format: binding; settings: increasing amounts of CS, pH 7.5
# Excerpt: as §1
# Figure S14. CSIC02 spectra with increasing amount of Chondroitin sulfate from shark
# cartilage (0,5, 1,0. 1,5, 2,0. 2,5 and 3,0 mg). Spectra were acquired in 10 mM Tris-HCl/150
# (1 picture or pasted object on this page, not shown here)
smiles,measurement,setting,value
CCN(CC)CCN(CC(=O)N(CCN1CCCC1)CC(=O)N(CCC1CCCN1C)CC(N)=O)C(=O)OCc1ccccc1 (stereo not drawn) [CSIC02],displacement of FS2 peptide from heparin agarose resin,[1],displaced
same,tendency to aggregate in aqueous solution,[2],absence of higher molecular weight aggregates
same,binding to chondroitin sulfate (qualitative),[3],progressive shifting of CSIC02 resonances

# Source: article PMC8465649, “Semaphorin 3A—Glycosaminoglycans Interaction as Therapeutic Target for Axonal Regeneration” (Pharmaceuticals, 2021)
